# Columns and labels:
# [1] = system: Human coronary artery endothelial cells (HCAEC); assay: HCAEC proliferation inhibition by Ciglitazone; type: cell-based; settings: Endothelial cell, day four, both cell culture schemes, FIG. 2a
# Method: Human coronary artery endothelial cells (HCAEC) were seeded in 24 well polystyrene tissue culture plates at a density of 5×10^3 cells per well. Two different feeding strategies and reading strategies were employed. Strategy 1: Cells were plated in cell culture media containing various concentrations of Ciglitazone and incubated at 37° C. for 48 hours. After the initial 48 hour incubation, the Ciglitazone containing plating media was changed and the cells were fed with drug free media and incubated for an additional 48 hours and then read. Strategy 2: Cells were plated in cell culture media containing various concentrations of Ciglitazone and incubated at […] for 48 hours. After the initial 48 hour incubation, the Ciglitazone-containing plating media was changed and the cells were fed with Ciglitazone-containing media and incubated for an additional 48 hours and then read. On day four cultures were analyzed to determine the proliferation inhibition effects of Ciglitazone. […] graphically depicts the percent inhibition at Ciglitazone levels between 0.001 μg/mL to 50 μg/mL for both cell culture schemes. It can be seen from FIG. 2a that significant HCAEC inhibition (>50% inhibition) begins at a dosage of 5 μg/mL and rises dramatically to nearly 100% at 10 μg/mL. FIG. 2b graphically depicts the same results in bar graph form based on cell counts.
# HCASMCs = assay: Ciglitazone cytotoxicity against HCASMCs (lactate dehydrogenase); type: cell-based, Human; settings: HCASMC, 0.001 μg/mL to 10 μg/mL Ciglitazone, after 24 hours, FIG. 1c
# Method: (§1) Ciglitazone cytotoxicity against HCASMCs was evaluated by seeding 24 well cell culture plates with 5.0×10^5HCASM cells/mL of cell culture media containing from 0.001 μg/mL to 10 μg/mL of Ciglitazone. Samples were taken after 24 hours and tested for lactate dehydrogenase […] concentration using methods known to those having ordinary skill in the art. Elevated LDL levels indicates cytotoxicity. FIG. 1c graphically depicts the cytotoxicity testing results.
# [2] = system: Human coronary smooth muscles cells (HCASMC); assay: HCASMC proliferation inhibition by Ciglitazone; type: cell-based; settings: day four, both cell culture schemes, FIG. 1a
# Method: Human coronary smooth muscles cells (HCASMC) were seeded in 24 well polystyrene tissue culture plates at a density of 5×10^3 cells per well. Two different feeding and reading strategies were employed. Strategy 1: Cells were plated in cell culture media containing various concentrations of Ciglitazone and incubated at 37° C. for 48 hours. After the initial 48 hour incubation, the Ciglitazone containing plating media was changed and the cells were fed with drug free media and incubated for an additional 48 hours and then read. Strategy 2: Cells were plated in cell culture media containing various concentrations of Ciglitazone and incubated at […] for 48 hours. After the initial 48 hour incubation, the Ciglitazone-containing plating media was changed and the cells were fed with Ciglitazone-containing media and incubated for an additional 48 hours and then read. On day four cultures were analyzed to determine the proliferation inhibition effects of Ciglitazone. FIG. 1a graphically depicts the percent inhibition at Ciglitazone levels between 0.001 μg/mL to 50 μg/mL for both cell culture schemes. It can be seen from FIG. 1a that significant HCASMC inhibition (>50% inhibition) begins at a dosage of 10 μg/mL and rises dramatically to nearly 100% at 50 μg/mL. FIG. 1b graphically depicts the same results in bar graph form based on cell counts.
# HCAECs = assay: Ciglitazone cytotoxicity against HCAECs (lactate dehydrogenase); type: cell-based, Human; settings: HCAEC, 0.001 μg/mL to 10 μg/mL Ciglitazone, after 24 hours, FIG. 2c
# Method: as §1, with “HCAECs” for “HCASMCs”, “5.0×10^5 HCAE” for “5.0×10^5HCASM”, “indicate” for “indicates”, “2c” for “1c”
structure (smiles),measurement,setting,value
CC1(COc2ccc(CC3SC(=O)NC3=O)cc2)CCCCC1 (stereo not drawn) [Ciglitazone],inhibition at 5 µg/mL,[1]; 5 μg/mL Ciglitazone,> 50%
same,inhibition at 10 µg/mL,[1]; 10 μg/mL Ciglitazone,~100%
same,cytotoxicity (lactate dehydrogenase concentration),HCASMCs,No cytotoxicity was detected
same,inhibition at 10 µg/mL,[2]; 10 μg/mL Ciglitazone,> 50%
same,inhibition at 50 µg/mL,[2]; 50 μg/mL Ciglitazone,~100%
same,cytotoxicity (lactate dehydrogenase concentration),HCAECs,No cytotoxicity was detected
